Measured values published in US9981968B2, “Substituted pyrrolo[2,3-d]pyrimidines for the treatment of cancer and proliferative disorders” (Northwestern University, priority 2013, dated 2018).

What was measured:
[1] = test system: CCRF-CEM; test: SRB growth assay, CCRF-CEM; type: cell-based; settings: Homo sapiens, CCRF-CEM (Leukemia), 48 hours, read-out: Percent viability
Description: (§1) Tested cell lines included, Leukemia: CCRF-CEM, HL-60(TB), MOLT-4, RPMI-8226 and SR; Non-Small Cell Lung: A549/ATCC, EKVX, HOP-62, HOP-92, NCI-H226, NCI-H23, NCI-H322M, NCI-H460 and NCI-H522; Colon: COLO 205, HCC-2998, HCT-116, HCT-15. HT29, KM12 and SW-620; CNS: SF-268, SF-295, SF-539, SNB-19, SNB-75 and U251; Melanoma: LOX IMVI, MALME-3M, M14, MDA-MB-435, SK-MEL-2, SK-MEL-28, SK-MEL-5, UACC-257 and UACC-62; Ovarian: IGR-OV1, OVCAR-3, OVCAR-4, OVCAR-5, OVCAR-8. NCI/ADR-RES and SK-OV-3; Renal: 786-0, A498, ACHN, CAKI-1, RXF 393, SN12C, TK-10 and UO-31; Prostate: DU-145 and PC-3; and Breast: MCF7, MDA-MB-231/ATCC, MDA-MB-468, HS 578T, BT-549 and T-47D.
(§2) The cells were cultured in RPMI1640 media supplemented with 10% Fetal Bovine Serum (FBS), 2 mM glutamine and with 5% CO2 and 37° C. For experiment, 5% of FBS and 50 ug/mL of gentamycin were used. Test articles were 10 μM of NUCL 381-3 or 10 μM NUCL 383-3. The positive control was 10 μM of doxorubicin.
(§3) Cells were plated in 96 well plates. The cells were plated in triplicate. Cells were plated at the densities based on NCI recommendation. Time zero cells (Tz) were fixed the following day with 50% or 80% ice cold Trichloracetic acid (TCA) and washed 5× with water. At 48 hours post addition of treatments, all remaining plates were fixed in 80% ice cold Trichloracetic acid (TCA) and washed 5× with water. After drying, one hundred microliters of 0.4% Sulphorhodamine B (SRB) in 1% acetic acid was added to each plate including the Tzero plate and incubated for 10 minutes at room temperature. After 5 additional washes with 1% acetic acid, plates were allowed to dry. One hundred microliters of Trizma base was added to each well and plates were read at 515 nm.
(§4) Percent of growth was calculated by the following formulas: [Ti/C]×100, where: Tz=absorbance readings for wells at time zero without treatment; C=absorbance readings of untreated cells (without treatment); and Ti=absorbance reading of wells with treatment.

[2] = test system: RPMI-8226; test: SRB growth assay, RPMI-8226; type: cell-based; settings: Homo sapiens, RPMI-8226 (Leukemia), 48 hours, read-out: Percent viability
Description: as §1, §2, §3, §4

[3] = test system: SR; test: SRB growth assay, SR; type: cell-based; settings: Homo sapiens, SR (Leukemia), 48 hours, read-out: Percent viability
Description: as §1, §2, §3, §4

[4] = test system: HOP-62; test: SRB growth assay, HOP-62; type: cell-based; settings: Homo sapiens, HOP-62 (Non-Small Cell Lung), 48 hours, read-out: Percent viability
Description: as §1, §2, §3, §4

[5] = test system: NCI-H460; test: SRB growth assay, NCI-H460; type: cell-based; settings: Homo sapiens, NCI-H460 (Non-Small Cell Lung), 48 hours, read-out: Percent viability
Description: as §1, §2, §3, §4

[6] = test system: COLO 205; test: SRB growth assay, COLO 205; type: cell-based; settings: Homo sapiens, COLO 205 (Colon), 48 hours, read-out: Percent viability
Description: as §1, §2, §3, §4

[7] = test system: HCT-116; test: SRB growth assay, HCT-116; type: cell-based; settings: Homo sapiens, HCT-116 (Colon), 48 hours, read-out: Percent viability
Description: as §1, §2, §3, §4

[8] = test system: SW-620; test: SRB growth assay, SW-620; type: cell-based; settings: Homo sapiens, SW-620 (Colon), 48 hours, read-out: Percent viability
Description: as §1, §2, §3, §4

[9] = test system: SNB-75; test: SRB growth assay, SNB-75; type: cell-based; settings: Homo sapiens, SNB-75 (CNS), 48 hours, read-out: Percent viability
Description: as §1, §2, §3, §4

[10] = test system: MALME-3M; test: SRB growth assay, MALME-3M; type: cell-based; settings: Homo sapiens, MALME-3M (Melanoma), 48 hours, read-out: Percent viability
Description: as §1, §2, §3, §4

[11] = test system: SK-MEL-28; test: SRB growth assay, SK-MEL-28; type: cell-based; settings: Homo sapiens, SK-MEL-28 (Melanoma), 48 hours, read-out: Percent viability
Description: as §1, §2, §3, §4

[12] = test system: OVCAR-3; test: SRB growth assay, OVCAR-3; type: cell-based; settings: Homo sapiens, OVCAR-3 (Ovarian), 48 hours, read-out: Percent viability
Description: as §1, §2, §3, §4

[13] = test system: TK-10; test: SRB growth assay, TK-10; type: cell-based; settings: Homo sapiens, TK-10 (Renal), 48 hours, read-out: Percent viability
Description: as §1, §2, §3, §4

[14] = test system: DU-145; test: SRB growth assay, DU-145; type: cell-based; settings: Homo sapiens, DU-145 (Prostate), 48 hours, read-out: Percent viability
Description: as §1, §2, §3, §4

[15] = test system: MM1S; test: SRB growth assay, MM1S; type: cell-based; settings: Homo sapiens, MM1.S, MM1S (Multiple Myeloma), 48 hours, read-out: Percent viability
[16] = test system: acute leukemia cell lines (THP-1, K562, Kasumi-1, and U937); test: Inhibition of viability of acute leukemia cell lines; type: cell-based, human; settings: THP-1, K562, Kasumi-1, U937
Experimental: Compounds 381, 383, 409 (as test compounds) and Compound 501 (as a negative control) were administered to a variety of acute leukemia cell lines (THP-1. K562, Kasumi-1, and U937) in order to test their ability to inhibit cell growth as compared to 8-amino adenosine (8NH2-Ado) and 8-chloro adenosine (8Cl-Ado) (as positive controls) as in the previous Examples.

[17] = test system: U937 cell lines; test: Immunoblot of PARP cleavage and cleaved caspase 3; type: cell-based, human; settings: U937 cell lysates, FIG. 17
Experimental: FIG. 17. Immunoblot of cell lysates from U937 cell lines treated with Compounds 381, 383, 409 (as test compounds) and Compound 501 (as a negative control) as compared to 8-amino adenosine (8NH2-Ado) and 8-chloro adenosine (8Cl-Ado) (as positive controls). The impact of the compounds on proteins associated with cell death was assessed via performing an immunoblot. (See FIG. 17). PARP cleavage indicated activation of the caspase cascade and cell death by induction of apoptosis. Similarly detection of cleaved caspase 3 indicated activation of caspase activity and cell death by apoptosis. GAPDH was included as a loading control to indicate approximately equal loading of protein.

SMILES | viability at 10 µM [1] [%] | viability at 10 µM [2] [%] | viability at 10 µM [3] [%] | viability at 10 µM [4] [%] | viability at 10 µM [5] [%] | viability at 10 µM [6] [%] | viability at 10 µM [7] [%] | viability at 10 µM [8] [%] | viability at 10 µM [9] [%] | viability at 10 µM [10] [%] | viability at 10 µM [11] [%] | viability at 10 µM [12] [%] | viability at 10 µM [13] [%] | viability at 10 µM [14] [%] | viability at 10 µM [15] [%] | cell viability ([16]; FIGS. 11-14) | inhibitory activity relative to positive controls ([16]; versus 8NH2-Ado and 8Cl-Ado) | induction of apoptosis (PARP cleavage, cleaved caspase 3) [17]
COc1cccc2c1C(=O)c1c(O)c3c(c(O)c1C2=O)C[C@@](O)(C(=O)CO)C[C@@H]3O[C@H]1C[C@H](N)[C@H](O)[C@H](C)O1 [Doxorubicin, reference compound] | 43.6 | 44.2 | 11.1 | 19.7 | 35 | 2.33 | 14.9 | 19 | 36 | 15.8 | 29.7 | 16.8 | 35.9 | 72.5 | 26.4 |  |  | 
FC(F)(F)c1cn(CC2CCNCC2)c2ncnc(Cl)c12 [NUCC-0000381] | 52.8 | 100 | 16.7 | 15.7 | 26.4 | 79.5 | 20.1 | 27.2 | 83.3 | 101 | 93.3 | 48.7 | 88.5 | 29.8 | 52.3 | reduce cell viability significantly | inhibitory activities approaching those of 8NH2-Ado and 8Cl-Ado | Induction of apoptosis was observed
CS(=O)(=O)N1CCC(Cn2cc(C(F)(F)F)c3c(Cl)ncnc32)CC1 [NUCC-0000383] | 54 | 100 | 37 | 88.5 | 69.1 | 93 | 15 | 25.7 | 23.3 | 42.7 | 4.54 | 95.5 | 73.9 | 11.2 | 58.2 |  |  | 
